# Measured values as given in patent US6710168B1, “Glycopeptide antibiotics, combinatorial libraries of glycopeptide antibiotics and methods of producing same” (The Trustees of the University of Princeton, priority 1999, dated 2004).
# Legend:
# Format in all cases: cell-based
# [1] = tested on: Enterococcus faecalis CL5244, VanB; test: MIC susceptibility test; settings: Enterococcus faecalis CL5244, VanB
# In short: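 MTT-based broth microdilution in cation-adjusted Mueller-Hinton broth; two-fold 12-step dilutions […], inoculum 10^6 CFU/mL, 37° C for 24 h.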
# [2] = tested on: Enterococcus faecium CL5137, VanA; test: MIC susceptibility test; settings: Enterococcus faecium CL5137, VanA
# [3] = tested on: Bacillus cereus (ATCC 11778); test: MIC susceptibility test, microdilution with MTT readout; settings: for MIC BC: Bacillus ceres ATCC11778
# In short: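 Bacillus cereus ATCC® 11778 susceptibility was measured by broth microdilution in 96-well microplates using Cation Adjusted Mueller-Hinton broth. Samples were diluted two-fold from 5 μg/mL over 12 steps. Each well combined 100 μL of cell suspension (10^6 CFU/mL) with 100 μL of antibiotic solution and was incubated at 37° C. for 24 h. Then 50 μL of MTT (1 mg/mL) was added for 30 min, and MIC (μg/mL) was read as the lowest concentration inhibiting growth.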
# [4] = tested on: Enterococcus faecalis (ATCC 29212); test: as above; settings: Enterococcus faecalis ATCC29212
# In short: (§1)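 Broth microdilution in cation-adjusted Mueller-Hinton broth, 12-step two-fold series from 5 μg/mL to […], mixed 1:1 with 10^6 CFU/mL cell suspension and incubated 24 h at 37 °C. MTT (1 mg/mL solution) is then added for 30 min (S. aureus, MRSA) or 2 h (E. faecalis strains). MIC = lowest concentration inhibiting growth.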
# [5] = tested on: Methicillin resistant Staphylococcus aureus (ATCC 33591); test: as above; settings: Staphylococcus aureus ATCC3359, Methicillin resistance
# In short: as §1
# [6] = tested on: Staphylococcus aureus (ATCC 29213); test: as above; settings: Staphylococcus aureus ATCC29213
# In short: as §1
# [7] = tested on: gentamicin, streptmycin, vancomycin resistant Enterococcus faecalis (ATCC 51299); test: microbe, parasite or virus in culture; settings: for MIC VREF: Enterococcus faecalis ATCC51299, vancomycin resistance
# In short: as §1
Structure (SMILES),MIC ([1]; read-out: MIC CL5244) [µg/mL],MIC ([2]; read-out: MIC CL5137) [µg/mL],"MIC ([3]; Bacillus cereus, ATCC11778, read-out: MIC BC) [µg/mL]",MIC ([4]; read-out: MIC EF) [µg/mL],"MIC ([5]; ATCC 3359 / ATCC 33591 / MRSA, read-out: MIC MRSA) [µg/mL]",MIC ([6]; read-out: MIC SA) [µg/mL],"MIC ([7]; Enterococcus faecalis, ATCC51299, read-out: MIC VREF) [µg/mL]",MIC CL5244 [1] [µg/mL],MIC CL5137 [2],MIC BC [3] [µg/mL],MIC EF [4] [µg/mL],MIC MRSA [5] [µg/mL],MIC SA [6] [µg/mL],MIC VREF [7] [µg/mL]
"CCCCCCCCCCNC1(C)CC(OC2C(Oc3c4cc5cc3Oc3ccc(cc3Cl)[C@@H](O)[C@@H](NC(=O)[C@H](CC(C)C)NC)C(=O)N[C@@H](CC(N)=O)C(=O)N[C@H]5C(=O)NC3C(=O)N[C@H](C(=O)N[C@@H](C(=O)O)c5cc(O)cc(O)c5-c5cc3ccc5O)[C@H](O)c3ccc(c(Cl)c3)O4)OC(CSc3nc4cc(Cl)ccc4s3)C(O)C2O)OC(C)C1O (stereo partly drawn) [LXXX, N-Decylvancosamine-glucose-C6-2-thio-5-chlorobenzothiazole Vancomycin]",2.4,50,5,1.3,5,> 5,2.5,,,,,,,
"CNC(CC(C)C)C(=O)NC1C(=O)NC(CC(N)=O)C(=O)NC2C(=O)NC3C(=O)NC(C(=O)NC(C(=O)O)c4cc(O)cc(O)c4-c4cc3ccc4O)C(O)c3ccc(c(Cl)c3)Oc3cc2cc(c3OC2OC(CSc3ccccc3)C(O)C(O)C2OC2CC(C)(N)C(O)C(C)O2)Oc2ccc(cc2Cl)C1O (stereo not drawn) [LIV, Glucose-C6-thiophenyl Vancomycin]",,,,,,,,13,50< μg/mL,1.3,1.3,0.63,1.0,2.5
"CNC(CC(C)C)C(=O)NC1C(=O)NC(CC(N)=O)C(=O)NC2C(=O)NC3C(=O)NC(C(=O)NC(C(=O)O)c4cc(O)cc(O)c4-c4cc3ccc4O)C(O)c3ccc(c(Cl)c3)Oc3cc2cc(c3OC2OC(COS(=O)(=O)c3c(C)cc(C)cc3C)C(O)C(O)C2OC2CC(C)(N)C(O)C(C)O2)Oc2ccc(cc2Cl)C1O (stereo not drawn) [XLI, Glucose-C6-mesitylenesulfonyl Vancomycin]",,,,,,,,6.3,50< μg/mL,1.3,1.3,1.3,0.63,1.3
